Data published in PubChem BioAssay (NCI).
Several values for one entry are separate records, joined by “and”; a condition that tells them apart may be missing. Equal entries are not always repeated.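 Briefly, cells in 96-well plates were exposed to five compound concentrations for 48 h, and endpoints were estimated by linear interpolation. At the GI50, growth is halved. At the TGI there is no net growth.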

Experiments:
Test in all cases: NCI tumour cell line growth inhibition, 48 h
SW-620 colon = test system: SW-620 colon
NCI-H522 lung = test system: NCI-H522 lung
P388/ADR leukemia = test system: P388/ADR leukemia
UO-31 renal = test system: UO-31 renal
IGROV1 ovarian = test system: IGROV1 ovarian
PC-3 prostate = test system: PC-3 prostate
HS 578T breast = test system: HS 578T breast
SN12K1 renal = test system: SN12K1 renal
KM20L2 colon = test system: KM20L2 colon
K-562 leukemia = test system: K-562 leukemia
OVCAR-8 ovarian = test system: OVCAR-8 ovarian
RPMI-8226 leukemia = test system: RPMI-8226 leukemia
SN12C renal = test system: SN12C renal
CAKI-1 renal = test system: CAKI-1 renal
LOX IMVI melanoma = test system: LOX IMVI melanoma
MDA-N = test system: MDA-N
NCI-H226 lung = test system: NCI-H226 lung
LXFL 529 NSCLC = test system: LXFL 529 NSCLC
P388 leukemia = test system: P388 leukemia

Row | SMILES | TGI (SW-620 colon) | TGI (NCI-H522 lung) | TGI (P388/ADR leukemia) [µM] | GI50 (UO-31 renal) | TGI (UO-31 renal) | GI50 (IGROV1 ovarian) | TGI (IGROV1 ovarian) | GI50 (PC-3 prostate) [µM] | TGI (PC-3 prostate) | GI50 (HS 578T breast) [µM] | TGI (HS 578T breast) | TGI (KM20L2 colon) [µM] | GI50 (K-562 leukemia) [µM] | TGI (K-562 leukemia) [µM] | GI50 (OVCAR-8 ovarian) | TGI (OVCAR-8 ovarian) | GI50 (RPMI-8226 leukemia) | TGI (RPMI-8226 leukemia) | TGI (SN12C renal) | GI50 (CAKI-1 renal) [µM] | further results
1 | CCN(CC)CCOc1cccc2nc3c(cc12)Cn1c-3cc2c(c1=O)COC(=O)C2(O)CC (configuration not stated) | 29.7 µM and 36.6 µM | 23.1 µM and 14.5 µM | 8.27 | 1.8 µM and 3.19 µM | 8.7 µM and 11.9 µM | 5.77 µM and 4.63 µM | 21.6 µM and > 44.8 µM | 4.62 | > 100 µM | 83.9 | > 100 µM | 14.4 | 2.53 | > 46.9 | 1.24 µM and 1.47 µM | 30.8 µM and 15.4 µM | 1.47 µM | 22.5 µM | 9.16 µM and > 41.5 µM | 0.889 | GI50 (SW-620 colon): 2.17 µM and 4.33 µM; GI50 (NCI-H522 lung): 7.54 µM and 1.36 µM; GI50 (P388/ADR leukemia): 2.56 µM; GI50 (SN12K1 renal): 1.03 µM and 1.18 µM; TGI (SN12K1 renal): 11.4 µM and 14.1 µM; GI50 (KM20L2 colon): 2 µM; GI50 (SN12C renal): 0.266 µM and 0.747 µM; TGI (CAKI-1 renal): 13.8 µM; GI50 (LOX IMVI melanoma): 0.429 µM and 0.508 µM; TGI (LOX IMVI melanoma): 11.3 µM and 12.1 µM; GI50 (MDA-N): 13 µM; TGI (MDA-N): 35.1 µM; GI50 (NCI-H226 lung): 0.963 µM and 2.23 µM; TGI (NCI-H226 lung): 10.9 µM and 16.8 µM
2 | CCCCCCCCCCCC[C@@H](O)[C@H]1CC[C@H]([C@H](O)CCCC[C@H](O)CCCCC[C@@H](O)CC2=C[C@H](C)OC2=O)O1 | 6.58 µM and 12.9 µM | 4.45 µM | 7.53 | 1.3 µM | 5.11 µM and 7.51 µM | 3.58 µM | 6.05 µM and 8.67 µM | 2.43 | 5.16 µM and 12.3 µM | 4.22 | 7.06 µM and 22.1 µM | 8.96 | 0.302 | 7.06 | 3.09 µM | 5.8 µM and 20.3 µM | 1.56 µM and 0.888 µM | 7.92 µM and 7.46 µM | 7.66 µM and 15.6 µM | 5.39 | TGI (LXFL 529 NSCLC): 10.8 µM; TGI (CAKI-1 renal): 10.5 µM; GI50 (LOX IMVI melanoma): 0.809 µM; TGI (LOX IMVI melanoma): 4.92 µM and 4.19 µM; TGI (MDA-N): 7.63 µM and 15.4 µM; GI50 (NCI-H226 lung): 1.53 µM; TGI (NCI-H226 lung): 3.54 µM and 18.2 µM; TGI (P388 leukemia): 3.76 µM
